Calls of active or inactive are those of the source. No cut-off for these calls is given here.
Experiments:
[1] = Toxicity in iv dosed mouse; type: organism-based; details: in vivo
[2] = Toxicity in ip dosed mouse; type: organism-based; details: in vivo
Mus musculus [3] = assay: Toxicity in ip dosed mouse assessed as labored breathing and depression at LD50; type: organism-based; details: in vivo
Mus musculus [4] = assay: Toxicity in ip dosed mouse assessed as death at LD50; type: organism-based; details: in vivo
Mus musculus [5] = assay: Effect on behavioral activity in ip dosed mouse assessed as occurrence of mydriasis for 30 mins; type: functional, organism-based

Structure (SMILES) | LD50 [1] [mg/kg] | LD50 [2] [mg/kg] | Activity (Mus musculus [3]) [min] | Activity (Mus musculus [4]) [min] | Activity (Mus musculus [5])
COc1ccc2c(c1O)-c1c(OC)c(OC)cc3c1[C@H](C2)[N+](C)(C)CC3.[Cl-] | 2.2 |  |  |  | 
COc1ccc2c(c1O)-c1c(OC)c(OC)cc3c1[C@H](C2)[N+](C)(C)CC3.[I-] |  | 10 |  |  | 
COc1ccc2c(c1O)-c1c(O)c(OC)cc3c1[C@H](C2)[N+](C)(C)CC3 [MAGNOFLORINE] |  | 19.6 | 5 | 15 | Active

— ChEMBL document CHEMBL1151387, “Constitutents of Magnolia Grandiflora. III. Toxic principle of the wood” (J Nat Prod, 1982)
